Data on 25 molecules can be found in patent US8404670B2 (Sunovion Pharmaceuticals Inc., priority 2009, dated 2013).

This experiment deals with T1, human histamine H3 receptor (Homo sapiens, UniProt Q9Y5N1).
T1 construct: host or cells: cells expressing the human H3 receptor
The experiment is described as follows: H3 GTPγS assay (SPA method), histamine H3 in vitro assay. Type of experiment: biochemical. The note with it: GTPγ[35S] binding to membranes of cells expressing human H3; antagonist mode with R-γ-Me-Histamine at EC80 (30 nM); in one embodiment HCl salts tested; read-out: Potency (functional potency as indicated by IC50). (In general: GTPγS resists hydrolysis and so accumulates on activated G proteins.)

T1 sequence (Q9Y5N1 whole entry): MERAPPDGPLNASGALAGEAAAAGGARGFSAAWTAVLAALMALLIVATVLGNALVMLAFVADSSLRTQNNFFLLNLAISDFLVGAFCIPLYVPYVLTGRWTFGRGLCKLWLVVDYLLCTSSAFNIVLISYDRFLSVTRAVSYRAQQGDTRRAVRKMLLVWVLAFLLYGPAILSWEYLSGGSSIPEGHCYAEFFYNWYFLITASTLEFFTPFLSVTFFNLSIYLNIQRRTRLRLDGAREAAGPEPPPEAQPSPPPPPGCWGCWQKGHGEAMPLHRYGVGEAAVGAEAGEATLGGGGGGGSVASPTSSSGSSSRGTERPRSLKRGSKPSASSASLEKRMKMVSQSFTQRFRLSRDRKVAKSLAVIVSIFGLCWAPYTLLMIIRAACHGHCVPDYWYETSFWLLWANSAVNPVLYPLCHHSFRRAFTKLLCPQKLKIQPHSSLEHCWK

Take `CN1Cc2cc3nc4n(c3cc2C1)CCN(C1CCC1)CC4` [Compound 146, 8-cyclobutyl-2-methyl-1,2,3,6,7,8,9,10-octahydro-[1,4]diazepino[1′,7′:1,2]imidazo[4,5-f]isoindole]: the concentration for half-maximal inhibition (IC50) was at most 10 nM.

For `c1c2c(cc3c1nc1n3CCN(C3CCC3)CC1)CN(CC1CC1)C2` [Compound 147, 8-cyclobutyl-2-(cyclopropylmethyl)-1,2,3,6,7,8,9,10-octahydro-[1,4]diazepino[1′,7′:1,2]imidazo[4,5-f]isoindole], the half-maximal inhibitory concentration (IC50) is at most 10 nM.

Turning to `c1cnc(N2Cc3cc4nc5n(c4cc3C2)CCN(C2CCC2)CC5)nc1` [Compound 148, 8-cyclobutyl-2-(pyrimidin-2-yl)-1,2,3,6,7,8,9,10-octahydro-[1,4]diazepino[1′,7′:1,2]imidazo[4,5-f]isoindole], the IC50 was at most 100 nM.

`c1cnc(N2Cc3cc4nc5n(c4cc3C2)CCN(C2CCC2)CC5)cn1` [Compound 149, 8-cyclobutyl-2-(pyrazin-2-yl)-1,2,3,6,7,8,9,10-octahydro-[1,4]diazepino[1′,7′:1,2]imidazo[4,5-f]isoindole]: the half-inhibitory concentration (IC50) is at least 1000 nM.

On to `c1cn(-c2ccc3c(c2)nc2n3CCN(C3CCC3)CC2)nn1` [Compound 150, 3-cyclobutyl-8-(1H-1,2,3-triazol-1-yl)-2,3,4,5-tetrahydro-1H-benzo[4,5]imidazo[1,2-d][1,4]diazepine], for which the concentration for half-maximal inhibition (IC50) is at most 100 nM.

With `c1cnn(-c2ccc3c(c2)nc2n3CCN(C3CCC3)CC2)n1` [Compound 151, 3-cyclobutyl-8-(2H-1,2,3-triazol-2-yl)-2,3,4,5-tetrahydro-1H-benzo[4,5]imidazo[1,2-d][1,4]diazepine], the IC50 is at most 100 nM.

`c1ncn(-c2ccc3c(c2)nc2n3CCN(C3CCC3)CC2)n1` [Compound 152, 3-cyclobutyl-8-(1H-1,2,4-triazol-1-yl)-2,3,4,5-tetrahydro-1H-benzo[4,5]imidazo[1,2-d][1,4]diazepine]: the 50% inhibitory concentration (IC50) is at most 100 nM.

With `c1cc2c(cc1-n1cnnn1)nc1n2CCN(C2CCC2)CC1` [Compound 154, 3-cyclobutyl-8-(1H-tetrazol-1-yl)-2,3,4,5-tetrahydro-1H-benzo[4,5]imidazo[1,2-d][1,4]diazepine], the concentration for half-maximal inhibition (IC50) is at most 100 nM.

With `Cc1nnnn1-c1ccc2c(c1)nc1n2CCN(C2CCC2)CC1` [Compound 156, 3-cyclobutyl-8-(5-methyl-1H-tetrazol-1-yl)-2,3,4,5-tetrahydro-1H-benzo[4,5]imidazo[1,2-d][1,4]diazepine], the IC50 is at most 100 nM.

For the molecule `Cc1nncn1-c1ccc2c(c1)nc1n2CCN(C2CCC2)CC1` [Compound 157, 3-cyclobutyl-8-(3-methyl-4H-1,2,4-triazol-4-yl)-2,3,4,5-tetrahydro-1H-benzo[4,5]imidazo[1,2-d][1,4]diazepine], the IC50 is at most 100 nM.

As for `FC1CCN(Cc2ccc3c(c2)nc2n3CCN(C3CCC3)CC2)CC1` [Compound 159, 3-cyclobutyl-8-((4-fluoropiperidin-1-yl)methyl)-2,3,4,5-tetrahydro-1H-benzo[4,5]imidazo[1,2-d][1,4]diazepine], the IC50 was at most 10 nM.

For `FC1(F)CCN(Cc2ccc3c(c2)nc2n3CCN(C3CCC3)CC2)CC1` [Compound 160, 3-cyclobutyl-8-((4,4-difluoropiperidin-1-yl)methyl)-2,3,4,5-tetrahydro-1H-benzo[4,5]imidazo[1,2-d][1,4]diazepine], the 50% inhibitory concentration (IC50) is at most 10 nM.

Take `FC1CCCN(Cc2ccc3c(c2)nc2n3CCN(C3CCC3)CC2)C1` (stereo not shown) [Compound 161, 3-cyclobutyl-8-((3-fluoropiperidin-1-yl)methyl)-2,3,4,5-tetrahydro-1H-benzo[4,5]imidazo[1,2-d][1,4]diazepine]: the IC50 is at most 10 nM.

Regarding `FC1(F)CCCN(Cc2ccc3c(c2)nc2n3CCN(C3CCC3)CC2)C1` [Compound 162, 3-cyclobutyl-8-((3,3-difluoropiperidin-1-yl)methyl)-2,3,4,5-tetrahydro-1H-benzo[4,5]imidazo[1,2-d][1,4]diazepine], the IC50 is at most 10 nM.

Consider `c1ccc2c(c1)CCN(Cc1ccc3c(c1)nc1n3CCN(C3CCC3)CC1)C2` [Compound 163, 3-cyclobutyl-8-((3,4-dihydroisoquinolin-2(1H)-yl)methyl)-2,3,4,5-tetrahydro-1H-benzo[4,5]imidazo[1,2-d][1,4]diazepine], for which the IC50 was at most 10 nM.

For the molecule `Fc1ccc2c(c1)CCN(Cc1ccc3c(c1)nc1n3CCN(C3CCC3)CC1)C2` [Compound 164, 3-cyclobutyl-8-((6-fluoro-3,4-dihydroisoquinolin-2(1H)-yl)methyl)-2,3,4,5-tetrahydro-1H-benzo[4,5]imidazo[1,2-d][1,4]diazepine], the IC50 was at most 10 nM.

As for `FC1CCN(Cc2ccc3c(c2)nc2n3CCN(C3CCC3)CC2)C1` (stereo not shown) [Compound 165, 3-cyclobutyl-8-((3-fluoropyrrolidin-1-yl)methyl)-2,3,4,5-tetrahydro-1H-benzo[4,5]imidazo[1,2-d][1,4]diazepine], the IC50 was at most 100 nM.

In the case of `FC1(F)CCN(Cc2ccc3c(c2)nc2n3CCN(C3CCC3)CC2)C1` [Compound 166, 3-cyclobutyl-8-((3,3-difluoropyrrolidin-1-yl)methyl)-2,3,4,5-tetrahydro-1H-benzo[4,5]imidazo[1,2-d][1,4]diazepine], the IC50 is at most 10 nM.

`CC(=O)N1CCN(c2ccc3c(c2)nc2n3CCN(C3CCC3)CC2)CC1` [Compound 167, 1-(4-(3-cyclobutyl-2,3,4,5-tetrahydro-1H-benzo[4,5]imidazo[1,2-d][1,4]diazepin-8-yl)piperazin-1-yl)ethanone]: the half-maximal inhibitory concentration (IC50) is at most 10 nM.

Regarding `N#Cc1ccc(C(=O)N2CCN(c3ccc4c(c3)nc3n4CCN(C4CCC4)CC3)CC2)cc1` [Compound 168, 4-(4-(3-cyclobutyl-2,3,4,5-tetrahydro-1H-benzo[4,5]imidazo[1,2-d][1,4]diazepin-8-yl)piperazine-1-carbonyl)benzonitrile], the IC50 was at most 10 nM.

For `O=C(c1cnccn1)N1CCN(c2ccc3c(c2)nc2n3CCN(C3CCC3)CC2)CC1` [Compound 169, (4-(3-cyclobutyl-2,3,4,5-tetrahydro-1H-benzo[4,5]imidazo[1,2-d][1,4]diazepin-8-yl)piperazin-1-yl)(pyrazin-2-yl)methanone], the IC50 is at most 100 nM.

Take `O=C(C1CC1)N1CCN(c2ccc3c(c2)nc2n3CCN(C3CCC3)CC2)CC1` [Compound 170, (4-(3-cyclobutyl-2,3,4,5-tetrahydro-1H-benzo[4,5]imidazo[1,2-d][1,4]diazepin-8-yl)piperazin-1-yl)(cyclopropyl)methanone]: the half-maximal inhibitory concentration (IC50) is at most 10 nM.

`CC(=O)N1CCCC(c2ccc3c(c2)nc2n3CCN(C3CCC3)CC2)C1` (stereo not shown) [Compound 171, 1-(3-(3-cyclobutyl-2,3,4,5-tetrahydro-1H-benzo[4,5]imidazo[1,2-d][1,4]diazepin-8-yl)piperidin-1-yl)ethanone]: the IC50 is at most 10 nM.

For the molecule `N#Cc1ccc(C(=O)N2CCCC(c3ccc4c(c3)nc3n4CCN(C4CCC4)CC3)C2)cc1` (stereo not shown) [Compound 172, 4-(3-(3-cyclobutyl-2,3,4,5-tetrahydro-1H-benzo[4,5]imidazo[1,2-d][1,4]diazepin-8-yl)piperidine-1-carbonyl)benzonitrile], the IC50 is at most 100 nM.

In the case of `O=C(c1cnccn1)N1CCCC(c2ccc3c(c2)nc2n3CCN(C3CCC3)CC2)C1` (stereo not shown) [Compound 173, (3-(3-cyclobutyl-2,3,4,5-tetrahydro-1H-benzo[4,5]imidazo[1,2-d][1,4]diazepin-8-yl)piperidin-1-yl)(pyrazin-2-yl)methanone], the concentration for half-maximal inhibition (IC50) is at most 100 nM.

The term IC50 denotes the point on the concentration scale where inhibition reaches its midpoint.
